Source: ChEMBL document CHEMBL3507680, “University of Dundee, Gates Library screen for HepG2 cell viability”

Assay: Human HepG2 cell viability assay in 384 well format
Format: toxicity, cell-based
Design: dose 125 nL, time 70.5 hour; cytotoxicity at 70.5 h: concentration not given beside the values
Conditions: HepG2 cells, read-out: Inhibition

Compound	cytotoxicity at 70.5 h
COCC(=O)Nc1ccc([C@@H](O)[C@H]2COCC(=O)N2CC(C)C)cc1	8.86%
CC(C)[C@H](N)C(=O)N1CCSc2ccccc2C1	-3.37%
OCC1(O)CCN(Cc2noc(-c3ccccc3)n2)CC1	-6.37%
N#CCSCCCN1CCCN(C(=O)c2ccccc2)CC1	-8.59%
CCC1(CC)Cc2ccccc2-c2nc(CN(C)C)nc(O)c21	27.5%
COc1ccccc1CN1CC[C@H]2C[C@H](C(=O)N3CCCC3)O[C@H]2C1	15.4%
N#Cc1ccc(C(=O)N2CCC3(CC2)C(=O)Nc2ccccc23)cn1	-11.7%
Cc1ccc(-c2ncc(CN3CCN(S(N)(=O)=O)CC3)s2)o1	0.625%
CC(C)S(=O)(=O)NCc1cccnc1Oc1ccc(F)cc1F	1.03%
CCC(=O)Nc1ccc2c(ccn2CC(=O)N(CC)CC)c1	-3.74%
Cc1cc(=O)n(CC(=O)NC2CCCCC2)c2ccccc12	-8.81%
O=C(Cc1ccsc1)NCC1Cn2nnc(-c3ccoc3)c2CO1 (centres undefined)	-4.44%
CNc1nc2c(s1)C(c1cccc(F)c1F)CC(=O)N2 (centres undefined)	-11.9%
O=C(COC1CCCCC1)Nc1ccn(Cc2cccnc2)n1	-7.64%
Cc1cnc2[nH]c(C(F)(F)F)c(CN3CCCC(CO)C3)c2c1 (centres undefined)	3.56%
c1cnc(NCC2Cn3nnc(-c4ccoc4)c3CO2)nc1 (centres undefined)	-13.1%
OC1(CN2CCCC2)COCCN(c2ncnc3[nH]ccc23)C1 (centres undefined)	-3.06%
COC1COC2(CCN(S(=O)(=O)c3ccc(F)cc3)CC2)C1 (centres undefined)	17.1%
O=C(NCC1CC2(CO1)CN(Cc1cccs1)C2)C1CCC1 (centres undefined)	19.9%
CS(=O)(=O)Cc1ccc(C(=O)N2CCCC(n3cncn3)C2)o1 (centres undefined)	1.66%
COc1c(C2CCCN2C(=O)c2cnc(C)cn2)c(C)nn1C (centres undefined)	10.6%
Cc1ccnc(NC(=O)CSCc2cccnc2)c1	-2.67%
Cn1ccnc1C1c2nc[nH]c2CCN1Cc1cccnc1 (centres undefined)	-5.94%

Compound	cytotoxicity at 70.5 h
CC(C)N1CCCC2(CCN(Cc3noc(C4CCCC4)n3)C2)C1=O (centres undefined)	11%
CNc1cc(C)nc(N2Cc3cnn(Cc4ccc(F)cc4)c3C2)n1	11.4%
CC(C)N(C)Cc1cnc2n1CCN(Cc1ccsc1)C2	-8.42%
Cc1cnc(N2C(=O)CSC2c2ccc(N(C)C)cc2)s1 (centres undefined)	-8.63%
NC(=O)N1CCC2(CC1)CN(c1ccsc1)C(=O)CO2	17.7%
CC1CN(c2ccc(NC(=O)Cn3cccn3)cc2)CCO1 (centres undefined)	-5.08%
COCCN1CCC2(C1)CN(c1ncccn1)C2	-0.0538%
Cc1noc(C(C)C)c1C(=O)NCC(c1cccc(F)c1)N(C)C (centres undefined)	-21.3%
O=C(C1CCCC1)N1CCn2c(nnc2C2CCCNC2)C1 (centres undefined)	-3.22%
Cc1nnc(SCC(=O)NCc2ccc3c(c2)CCC(=O)N3)s1	2.74%
Fc1cccc(O[C@@H]2C[C@H]3CN(Cc4ccncc4)CCN3C2)c1	-15.6%
CCCc1noc2ncc(C(=O)N3CCCC3c3cnn(C)c3)cc12 (centres undefined)	-6.19%
Cc1cc(C(=O)Nc2cccn(Cc3ccc(F)cc3)c2=O)on1	-3.03%
COc1ccc(C2(NC(=O)C3CC(=O)N(C)C3)CCCC2)cc1 (centres undefined)	20.4%
N#Cc1csc(CN(CC(=O)N2CCCC2)CC2CCCO2)c1 (centres undefined)	0.764%
CC(C)c1nc(C2CCCN2C(=O)CCn2cncn2)no1 (centres undefined)	-7.37%
N#Cc1cccc(N2CCC(c3nccn3Cc3cscn3)CC2)n1	-2.31%
O=S(=O)(NCc1ccnc(-n2ccnc2)c1)c1cncc(F)c1	-1.94%
O=C(NC1CCCC1)c1cnn2c(-c3ccco3)ccnc12	-8.37%
O=C(O)C1CCN(C(=O)Cn2ccc3c(Cl)cccc32)CC1	-12.6%
CN1CCN(Cc2ccsc2)Cc2cccnc21	-6.75%
CN1CCC(NC(=O)Nc2ccc(F)c(Br)c2)C1=O (centres undefined)	21%
CCOc1ccccc1OC1CCN(C(=O)c2[nH]nc(C)c2Br)CC1	0.076%

Compound	cytotoxicity at 70.5 h
Cc1ccc(-c2[nH][nH]c(=O)c2CCN)cc1	-14.2%
Cn1cc(NS(=O)(=O)CC2CCCCO2)cn1 (centres undefined)	-8.18%
COc1ccc(S(=O)(=O)NC(=O)COC2CCCC2)cc1	-5.57%
O=C(c1ccc2c(c1)CCC2)N1C[C@@H](CN2CCOCC2)[C@@H](CO)C1	-6.01%
CCN(CC)S(=O)(=O)c1ccc2c(c1)N(Cc1ccccn1)C(=O)CS2	-4.62%
CCn1ncc2c1C(COCC1CC1)N(Cc1c(C)noc1C)CC2 (centres undefined)	0.596%
CCN(C(=O)CS(=O)(=O)Cc1cc(Cl)c2c(c1)OCCCO2)C1CC1	0.0743%
CN1CCN(Cc2cccc(NCc3ncc[nH]3)c2)CC1	8%
CCC(C)NC(=O)c1ccc(CNC(=O)COC)cc1 (centres undefined)	-9.97%
CC(NC(=O)N1CCc2sccc2C1)c1nncn1C (centres undefined)	-5.43%
CN(CCS(=O)(=O)c1cc(Cl)ccc1Cl)CC(=O)Nc1cccc(F)c1	-0.61%
CC(CN1CCOC1=O)NC(=O)c1cccc2cc[nH]c12 (centres undefined)	-3.45%
O=C(NCC1CC1)C1CN(C(=O)c2ccncc2)CC12CCOCC2 (centres undefined)	3.6%
CC(C)c1cc(C(=O)N[C@H]2CN(C3CCOCC3)C[C@@H]2C2CC2)no1	-6.62%
Cc1cc(C)n(C2CN(c3ncnc4c3CCNCC4)C2)n1	-9%
CCOc1ccccc1-c1cc(N)[nH]n1	-5.47%
COc1ccc(CNC(=O)N2CCCN(CC3CCCCC3)CC2)cn1	-5.17%
CC(C)c1nc(CN(C)C2CCN(CC(F)(F)F)C2)no1 (centres undefined)	1.98%
Cn1cc(C(=O)N2C[C@@H]3COC[C@]3(COCc3cccnc3)C2)cn1	-12.3%
Cc1noc(C)c1CN(C)C(=O)COc1cccc(C#N)c1	-10.8%
CC(=O)c1cn(CC(=O)N2CCC(O)(CO)CC2)c2ccccc12	-0.902%
COc1ccc(CN2CCO[C@H]3[C@H](Oc4ccccn4)CC[C@@H]32)cc1	-2.38%
COCC(=O)NCCCn1ncc2c(C)cccc21	-5.2%

Compound	cytotoxicity at 70.5 h
Cc1ccc(NC2CCN(C(=O)CCc3cscn3)CC2)nn1	11.4%
COCCNc1c(-c2ccc(Cl)cc2)c(=O)c1=O	-7.26%
O=C(C1CC(F)(F)C1)N1C[C@@H]2CN(Cc3ccsc3)CCO[C@@H]2C1	-14.8%
FC(F)(F)C1CCCn2c(CNCc3cccs3)nnc21 (centres undefined)	-7.88%
Cc1nc(CNCC2CCCN2c2cccnn2)no1 (centres undefined)	-1.22%
CC1CN(Cc2nc(Cc3ccccc3F)no2)CCN1C (centres undefined)	-2.74%
CC1(C)CN(Cc2ccncc2)CCS1(=O)=O	24.1%
O=C(c1ccc(NCc2cccc(F)c2)cc1)N1CCC(CO)CC1	2.87%
CC(C)c1nc2n(n1)CC(NCC(=O)N(C)Cc1cccs1)CC2 (centres undefined)	-13.3%
CCN(CC)S(=O)(=O)c1ccc(C(F)(F)F)cc1C#N	-8.21%
COc1ccc(CN2CCN(C(C)=O)CC2)cc1SC(F)(F)F	0.0728%
CN(CC(=O)N1CCC(COc2ccccc2)CC1)c1cnccn1	-0.223%
CC(C)c1nc(C2CCCN2Cc2nnc(C3CCC3)o2)no1 (centres undefined)	14.8%
Cn1ncnc1NS(=O)(=O)c1ccccc1	6.82%
CCn1nc(C)c2nc(C(C)C)nc(N3CCCC3)c21	15.3%
CC(C)(C)OC(=O)NC(C)(C)c1noc(Cn2ccnc2)n1	-4.72%
Cn1nc(CN2CCC(c3ccncc3)CC2)c2c(Cl)cccc21	-0.977%
Cn1cc(S(=O)(=O)N2CCN(S(=O)(=O)c3ccc(Br)s3)CC2)cn1	-8.9%
CSCC(C)(O)CNc1ncccc1I (centres undefined)	7.7%
Cc1cccc(CN2C[C@@H]3COC[C@]3(COCC(=O)N(C)C)C2)n1	-3.44%
CC1CCCN(C(=O)c2ccc(N(C)Cc3cnn(C)c3)nc2)C1 (centres undefined)	20.1%
Cc1ccc(C(=O)N2CCC(Oc3ccccc3)CC2)c(=O)[nH]1	10.3%
NC(=O)N1CCCN(C2CCCCc3ccccc32)CC1 (centres undefined)	-1.64%

Compound	cytotoxicity at 70.5 h
Cc1cc(C)n(C2CCCN(C(=O)CCCNc3ncccn3)C2)n1 (centres undefined)	27.5%
COc1ccnc(N2C[C@@H](NS(=O)(=O)N(C)C)[C@H](C(C)C)C2)n1	9.46%
Cc1noc(CCCC(=O)NCC2CCS(=O)(=O)C2)n1 (centres undefined)	1.41%
O=C(c1cccnc1)N1CCCC2(COCCN(c3ccccc3)C2)C1 (centres undefined)	-16%
Nc1nc2c(c(N3CCSCC3)n1)CCN(Cc1ccccn1)CC2	-2.53%
CCC(CC)NC(=O)c1ccc2c(c1)C(c1nc[nH]n1)CN2S(C)(=O)=O (centres undefined)	-7.51%
CCn1nc2c(cc1=O)CN(Cc1nc(-c3ccoc3)no1)CC2	19.1%
Cc1ccccc1CS(=O)(=O)CC(=O)N(C)Cc1ccccc1	-9.59%
CC(C)Cc1noc(CN2CCN(C(=O)c3cccs3)CC2)n1	-11.2%
Cc1ncsc1C(=O)NC1CCN(c2ncccc2C#N)CC1	-6.11%
O=C(Nc1c(N2CCCC2)cccc1N1CCCC1)c1cnccn1	-14.4%
Cc1cc(C)n(CC2CCCCN2C(=O)c2sccc2C#N)n1 (centres undefined)	1.28%
C/C(NC(=O)c1ccccn1)=C1\C(=O)C[C@@H]2[C@H]1C2(C)C	-2.07%
CCN1CCCCC1C(=O)N1CCC(OC2CCCC2)CC1 (centres undefined)	6.41%
CC(=O)N1CCN(C(=O)CCn2c(C)nc3ccccc3c2=O)CC1	-7.85%
Cc1cc(C(=O)N2CCC3(CC2)CC(c2cccnc2)C(=O)N3C)no1 (centres undefined)	1.74%
Cc1nnc(CN(Cc2ccc3c(c2)OCO3)C2CCC(C)CC2)o1 (centres undefined)	-1.97%
Cc1cnn(C2CN(Cc3nnc(C4CC4)o3)C2)c1	-10.1%
CCc1ocnc1C(=O)N1CCC(n2cc(-c3ccsc3)nn2)CC1	-10.3%
CC(=O)NC1CCCN(C(=O)NCc2cccnc2)C1 (centres undefined)	0.9%
Cc1ccc2nc(CNCCCOc3ccccc3)cc(O)c2c1 [UCSF924]	-2.02%
CS(=O)(=O)N1CCCn2nc(CNc3ncccn3)cc2C1	-1.06%
